Laboratory results taken from patent US7297796B2, “Sulfamoyl benzamide derivatives and methods of their use” (Adolor Corporation, priority 2004, dated 2007).

Tests used:
CB2 receptor [1] = target: T1, CB2 receptor (Homo sapiens, UniProt P34972); experiment: hCB2 receptor binding, [3H]CP55940 displacement; conditions: human cloned CB2 receptor
T1 construct: expressed in transfected cells; membranes
Experimental: (§1) Ki values in receptor binding experiments were determined by Cheng-Prusoff correction of IC50 values derived from automated nonlinear regression analysis of sigmoidal titration curves using a three-parameter modification (slope set to 1.0) of the four-parameter equation described in Cheng, Y.-C. and W. H. Prusoff, Biochem. Pharmacol. 22:3099-3108 (1973) and DeLean et al., Am. J. Physiol. 235:E97-E102 (1978).
(§2) Chinese hamster ovary cells (CHO-K1), stably transfected with either hCB1 or hCB2, were washed two times with cold PBS, scraped from 500 cm^2 tissue culture plates, and pelleted by centrifugation at 1000×g for 10 min. The supernatant was discarded and the pellet was resuspended in Tris assay buffer (50 mM Tris HCl, pH 7.8, containing 1.0 mM EGTA, 5.0 mM MgCl2, […], and 0.5 mg/mL aprotinin), homogenized with a Polytron homogenizer (Brinkmann) at a setting of 1 for 20 sec and centrifuged at 38,000×g for 20 min at 4° C. The pellet was resuspended in Tris assay buffer and aliquots of 1 mg protein/mL were stored at −80° C. for further use.
(§3) Binding assays were performed by incubating 0.2-0.6 nM (34,000-100,000 dpm) [^3H]CP55940 with membranes prepared from cells expressing cloned human CB1 or CB2 receptors in buffer A (50 mM Tris HCl, pH 7.0, 5.0 mM MgCl2, 1.0 mM EGTA and 1.0 mg/mL fatty acid free bovine serum albumin). After incubation for 60 min at room temperature for the hCB2 binding assay or 120 min at 30° C. for the hCB1 assay, the assays were filtered through GF/C filters that had been pre-soaked overnight in 0.5% (w/v) PEI and 0.1% BSA in water. The filters were rinsed 6 times with one mL of cold wash buffer (50 mM Tris HCl, pH 7.0, 5.0 mM MgCl2, 1.0 mM EGTA and 0.75 mg/mL fatty acid free bovine serum albumin), 30 μL of MicroScint 20 was added to each filter and the radioactivity on the filters determined by scintillation spectroscopy. Nonspecific binding was determined in the presence of 10 μM WIN55212-2.

CB1 receptor [2] = target: T2, CB1 receptor (Homo sapiens, UniProt P21554); experiment: hCB1 receptor binding, [3H]CP55940 displacement; conditions: human cloned CB1 receptor
T2 construct: expressed in transfected cells; membranes
T2 sequence (P21554 whole entry): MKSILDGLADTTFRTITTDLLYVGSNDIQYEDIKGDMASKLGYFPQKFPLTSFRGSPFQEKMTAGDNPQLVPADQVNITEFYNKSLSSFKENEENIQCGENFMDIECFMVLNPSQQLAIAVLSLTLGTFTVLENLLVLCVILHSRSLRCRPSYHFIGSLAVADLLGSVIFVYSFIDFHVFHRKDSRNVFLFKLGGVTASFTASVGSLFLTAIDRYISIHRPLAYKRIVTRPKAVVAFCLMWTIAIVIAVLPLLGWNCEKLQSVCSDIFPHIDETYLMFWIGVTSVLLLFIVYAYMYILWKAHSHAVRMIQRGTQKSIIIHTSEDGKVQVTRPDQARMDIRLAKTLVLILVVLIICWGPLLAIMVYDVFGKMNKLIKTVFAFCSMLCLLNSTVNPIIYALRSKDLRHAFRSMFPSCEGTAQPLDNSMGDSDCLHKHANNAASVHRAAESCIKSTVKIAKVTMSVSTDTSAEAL
Experimental: as §1, §2, §3

CB2 receptor [3] = target: T1, CB2 receptor; experiment: hCB2-mediated [35S]GTPγS binding; type: biochemical; conditions: for EC50: agonist, read-out: in vitro CB2 receptor agonist potency EC50
Experimental: (§4) EC50 values in functional assays were also derived from automated nonlinear regression analysis of sigmoidal titration curves using the three-parameter modification of the four-parameter equation.
as §2
hCB2-Mediated [^35S]GTPγS binding was measured in the same way except the assay mixture contained […] and the incubation time was 6 hours. [^35S]GTPγS binding in rat cerebellar homogenate was determined in a mixture containing 40-60 pM [^35S]GTPγS, homogenate assay buffer (50 mM Tris-HCl, 3 mM MgCl2, 0.2 mM EGTA), 100 mM NaCl, 10 mM MgCl2, […], 20 μg homogenate protein/well and agonist in a total volume of 250 μL in 96 well Basic Flashplates (Perkin Elmer). After incubation at 30° C. for 2 hours, the plates were centrifuged at 800×g at 4° C. for 5 min and the radioactivity bound to the membrane was determined by scintillation spectrometry using the Topcount (Perkin Elmer).

[4] = tested on: L5 SNL-induced tactile allodynia; experiment: Neuropathic pain assay: L5 SNL-induced tactile allodynia (von Frey); type: in vivo, rat; conditions: L5 SNL rats, n = 7-8/group
Experimental: Male Sprague-Dawley rats (120-250 g, Harlan Laboratories, Columbus, Ohio) were housed in pairs and allowed free access to food and water throughout the study. Room temperature and humidity were maintained at 21° C. and 70%, respectively. Nerve injury was produced with tight ligation of the left L5 spinal nerve (Kim, S. H., and J. M. Chung, Pain, 50, 355-363 (1992); LaBuda, C. J. and Fuchs, P. N., Exp Neurol., 163, 490-494(2000); LaBuda, C. J. and Fuchs, P. N., Neurosci Letters, 290, 137-140(2000); LaBuda, C. J., Donahue, R., Fuchs, P. N., Pain, 94, 59-63, (2001)). Briefly, animals were placed in the prone position to access the left L4-L6 spinal nerves. Under magnification, approximately one third of the L6 transverse process was removed. The L5 spinal nerve was identified and carefully dissected free from the adjacent L4 spinal nerve and then tightly ligated using 6-0 silk suture. The wound was treated with an antiseptic solution, the muscle layer was sutured, and the wound was closed with wound clips. Sham-operated surgical controls were prepared in the same manner, but the L5 spinal nerve was not […]. All housing conditions and experimental procedures were performed in accordance with the ethical guidelines of the IASP and the Adolor Corporation Animal Care and Use Committee.
Seven to ten animals per group were used for all behavioral assays. After a 7-10 day post-surgical recovery, animals were tested for baseline sensitivity to tactile stimulation of both hindpaws. Allodynic animals were defined as animals having a threshold of less than 7.5 grams of pressure applied to the injured hindpaw. Tactile sensitivity was evaluated using von Frey monofilaments before and after treatment. […] Thirty minutes after treatment, tactile sensitivity was evaluated. Five to seven days later, animals were tested using a different compound. Each animal was tested three times with different compounds. All behavioral testing was performed between 9:00 AM and 5:00 PM in a well-illuminated room with white background noise.
Animals were placed in a Plexiglas chamber (20 cm×10.5 cm×40.5 cm) and habituated for 15 minutes. The chamber was positioned on top of a mesh screen so that von Frey monofilaments could be presented to the plantar surfaces of both hindpaws. Measurements of tactile sensitivity for each hindpaw were obtained using the up/down method (Dixon, W. J., Annu Rev Pharmacol Toxicol 20, 441-462, 1980) with seven von Frey monofilaments (0.04, 0.07, 0.16, 0.4, 1, 6, and 15 grams). Each trial started with a von Frey force of 0.4 g delivered to the right hindpaw and then the left hindpaw for approximately 1-2 sec each. If there was no withdrawal response, the next higher force was delivered. If there was a response, the next lower force was delivered. This procedure was performed until no response was made at the highest force (15 grams) or until four stimuli were administered following the initial response. The 50% paw withdrawal threshold for each paw was calculated using the following formula: [Xth]log=[vFr]log+ky where [vFr] is the force of the last von Frey filament used, k=0.2249 which is the average interval (in log units) between the von Frey monofilaments, and y is a value that depends upon the pattern of withdrawal responses (Dixon, Id.). […] Testing for tactile sensitivity was performed twice and the mean 50% withdrawal value assigned as the tactile sensitivity for the right and left paws for each animal.
Tactile sensitivity for both hindpaws before and after treatments were analyzed using one-way analysis of variance (ANOVA) followed by post-hoc comparisons (protected t-test) for group differences. An alpha level of 0.05 was used for all analyses.

CB1 receptor [5] = target: T2, CB1 receptor; experiment: hCB1-mediated stimulation of [35S]GTPγS binding; type: biochemical; conditions: agonist; read-out: in vitro CB1 receptor agonist potency EC50
Experimental: as §4
as §2, with “The pellet was resuspended in Tris assay buffer and aliquots of 1 mg protein/mL were stored at −80° C. for further use.” left out
hCB1-Mediated stimulation of [^35S]GTPγS binding was measured in a mixture containing 100-150 pM [^35S]GTPγS, 150 mM NaCl, 45 mM MgCl2, […], 0.4 mM DTT, 1 mM EGTA, 1 mg/mL fatty acid free BSA, 25 μg of membrane protein and agonist in a total volume of 250 μL of buffer A in 96 well Basic Flashplates (Perkin Elmer). After incubation at room temperature for 2 hours the plates were centrifuged at 800×g at 4° C. for 5 min and the radioactivity bound to the membranes was determined by scintillation spectrometry using the Topcount (Perkin Elmer).

T1 sequence (P34972 whole entry): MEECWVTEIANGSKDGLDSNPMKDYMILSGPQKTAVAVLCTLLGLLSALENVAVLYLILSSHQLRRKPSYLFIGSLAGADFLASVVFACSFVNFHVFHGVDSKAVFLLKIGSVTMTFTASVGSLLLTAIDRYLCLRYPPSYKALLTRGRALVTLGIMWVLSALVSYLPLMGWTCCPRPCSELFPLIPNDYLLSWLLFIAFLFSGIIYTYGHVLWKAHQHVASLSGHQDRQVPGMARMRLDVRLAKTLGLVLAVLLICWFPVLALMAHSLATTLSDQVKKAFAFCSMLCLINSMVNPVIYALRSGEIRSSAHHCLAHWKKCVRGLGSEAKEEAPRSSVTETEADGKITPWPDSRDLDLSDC

SMILES	Ki (CB2 receptor [1])	Ki (CB1 receptor [2])	Anti-Allodynia [%] ([4]; 3 mg/kg)	EC50 (CB1 receptor [5])	EC50 (CB2 receptor [3])	other results
CN(Cc1ccccc1)S(=O)(=O)c1cc(C(=O)NC2C(C)(C)[C@@H]3CC[C@]2(C)C3)ccc1Br (stereo in doubt) [Compound 23, 3-(Benzyl-methyl-sulfamoyl)-4-bromo-N-(1,3,3-tri-methyl-bicyclo[2.2.1]hept-2-yl)-benzamide]	10.3 nM	> 1000 nM	–	–	–	IC50 (CB2 receptor [3]; antagonist, read-out: in vitro CB2 receptor antagonist potency IC50): 13.7 nM
CN1CCCCC1Cn1cc(C(=O)c2cc([N+](=O)[O-])ccc2I)c2ccccc21 (centres unmarked) [AM1241, reference compound]	–	–	27.5 ± 10.1%	–	–	–
CC1(C)[C@@H]2CC[C@@](C)(C2)[C@@H]1NC(=O)c1ccc(Br)c(S(=O)(=O)N2CCCCC2)c1 [Compound 17, 4-Bromo-3-(piperidine-1-sul-fonyl)-N-(1,3,3-tri-methylbicyclo[2.2.1]hept-2-yl)-benzamide]	13.1 nM	93 nM	–	326 nM	18.2 nM	–
Cc1ccc(C(=O)N[C@H]2C(C)(C)[C@@H]3CC[C@@]2(C)C3)cc1S(=O)(=O)N1CCOCC1 [Compound 26, 4-Methyl-3-(morpholine-4-sul-fonyl)-N,S-(1,3,3-tri-methyl-bicyclo[2.2.1]-hept-2-yl)-benzamide]	3.7 nM	121 nM	61.7 ± 13.6 %	2000 nM	7.8 nM	Anti-Allodynia [%] ([4]; 1 mg/kg): 53.5 ± 14.2%; Anti-Allodynia [%] ([4]; 6 mg/kg): 61.1 ± 12.6 %; Anti-Allodynia [%] ([4]; 10 mg/kg): 44.0 ± 16.2%
Cc1c(C(=O)c2cccc3ccccc23)c2cccc3c2n1[C@H](CN1CCOCC1)CO3 [WIN, WIN 55,212-2, reference compound]	–	–	–	–	–	Anti-Allodynia [%] ([4]; 2.5 mg/kg): 75.2 ± 13.8%
